These results are taken from patent publication US20050106111A1, “Compositions and methods for reducing dental plaque” (Aphios Corporation, priority 2003, published 2005).

For series [1], the system named is A. actinomycetemcomitans. Briefly: Minimum inhibitory concentration (MIC) against A. actinomycetemcomitans. It counts as cell-based. Conditions: Aggregatibacter actinomycetemcomitans. From the text:
(§1) Minimum inhibitory concentrations (MIC) can be determined to identify the minimum concentration of a composition needed to inhibit the growth of the target organism using methods well known to those skilled in the art. Minimum bactericidal concentrations (MBC) can be determined to identify the minimum concentration of a composition needed to kill the target organism using methods well known to those skilled in the art. The MBC can be determined from the same plates set up for the MIC.
(§2) Cultures of Actinomyces viscosus, Streptococcus mutans, and Actinobacillus actinomycete-mcomitans were obtained from the American Type Culture Collection (ATCC) following instructions provided by ATCC. Frozen stocks of each bacteria were prepared by adding 10% (v/v) volume of glycerol to an overnight culture; aliquots of the resulting suspension were then frozen at −80° C.
(§3) Minimum inhibitory concentrations (MIC) were determined to identify the minimum concentration of a compound needed to inhibit the growth of the target organism. Minimum bactericidal concentrations (MBC) were determined to identify the minimum concentration of a compound needed to kill the target organism. The MBC was determined from the same plates set up for the MIC.

In series [2] the test system is A. actinomycetemcomitans. Briefly: Biofilm assay, bactericidal activity against A. actinomycetemcomitans in a biofilm on a solid support. It counts as cell-based. Conditions: 125 μg/mL, 1 hour incubation in test agent. The protocol: (§4) A biofilm assay can be conducted to assess the bactericidal activity of the target compositions when the challenge organisms are contained within a biofilm. The semi-purified Vibrio gazogenes extract can be assayed for bactericidal activity against orally-relevant microbes contained in a biofilm grown on a solid support.
(§5) A biofilm assay was conducted to access the bactericidal activity of the target compounds when the challenge organisms are contained within a biofilm. The semi-purified Vibrio gazogenes extract was assayed for bactericidal activity against orally-relevant microbes contained in a biofilm grown on a solid support.

Series [3] has as its system Actinomyces viscosus. The experiment in a line: Minimum inhibitory concentration (MIC) against A. viscosus. It counts as cell-based.
Excerpt: as §1, §2, §3

The subject of another series is A. viscosus. Briefly: Biofilm assay, bactericidal activity against A. viscosus in a biofilm on a solid support. It counts as cell-based. Conditions: 125 μg/mL, 1 hour incubation in test agent. Here is the method:
as §4, §5

Another series has as its system S. mutans. Briefly: Biofilm assay, bactericidal activity against S. mutans in a biofilm on a solid support. Conditions: 125 μg/mL, 1 hour incubation in test agent. It counts as cell-based. Here is the method:
as §4, §5

The test system of series [4] is Actinomyces viscosus. The experiment in a line: Minimum bactericidal concentration (MBC) against A. viscosus. It counts as cell-based.
Excerpt: as §1, §2, §3

Series [5] relates to Streptococcus mutans. Briefly: Minimum bactericidal concentration (MBC) against S. mutans. It counts as cell-based.
Excerpt: as §1, §2, §3

Series [6] relates to A. actinomycetemcomitans. Briefly: Minimum bactericidal concentration (MBC) against A. actinomycetemcomitans. It counts as cell-based. Conditions: Aggregatibacter actinomycetemcomitans.
Excerpt: as §1, §2, §3

The test system of series [7] is Streptococcus mutans. The experiment in a line: Minimum inhibitory concentration (MIC) against S. mutans. It counts as cell-based.
Excerpt: as §1, §2, §3

For series [8] the following is noted: clinical trials; cited from earlier work.
The next series relates to mice. Conditions: cited from earlier work.

By LD50 is commonly meant the dose at which mortality reaches 50%.

In brackets after ≈: the same amount, converted by molar mass. Read-outs that look alike come from different tables or passages of the source. Bounds are passed on as bounds.

For `Oc1cc(Cl)ccc1Oc1ccc(Cl)cc1Cl` [Triclosan, 5-chloro-2-(2,4-dichlorophenoxy)-phenol], the values for the MIC in the series with A. actinomycetemcomitans [1], against Actinomyces viscosus [3] and with Streptococcus mutans [7] were below 0.75 µg/mL, 3.9 µg/mL (≈ 13.5 µM) and 7.8 µg/mL (≈ 26.9 µM), respectively. Besides, the “Microbial Biofilm Control (bacteria count after treatment)” value is reported as 2.1 × 10^6 in the series with A. actinomycetemcomitans [2], 6.0 × 10^5 in the series on A. viscosus and 0 in the series on S. mutans. Besides, the MBC is 3.9 µg/mL (≈ 13.5 µM) in the series on Actinomyces viscosus [4], 15.6 µg/mL (≈ 53.9 µM) with Streptococcus mutans [5] and below 0.75 µg/mL with A. actinomycetemcomitans [6].

For the compound `N=C(NCCCCCCNC(=N)NC(=N)Nc1ccc(Cl)cc1)NC(=N)Nc1ccc(Cl)cc1.O=C(O)[C@H](O)[C@@H](O)[C@H](O)[C@H](O)CO.O=C(O)[C@H](O)[C@@H](O)[C@H](O)[C@H](O)CO` [CHG, chlorhexidine digluconate], the reduced gingivitis in [8] is 50-80%.

On to magnesidin, for which the median lethal dose (LD50) with mice (intraperitoneal) is recorded as 50 mg/kg; with mice (oral or subcutaneous) it was 1,000 mg/kg.

For `[H]/N=C(\N/C(=N/[H])NCCCCCCNC(=N)NC(=N)Nc1ccc(Cl)cc1)Nc1ccc(Cl)cc1` [Chlorhexidine, chlorhexidine], the MIC is 3.9 µg/mL (≈ 7.72 µM) in the series with A. actinomycetemcomitans [1] (A. actinomycetemcomitans, read-out: MIC); 3.9 µg/mL (≈ 7.72 µM) in the series with Actinomyces viscosus [3] (A. viscosus, read-out: MIC); 1.95 µg/mL (≈ 3.86 µM) with Streptococcus mutans [7] (S. mutans, read-out: MIC). In addition, the MBC with Actinomyces viscosus [4] (A. viscosus, read-out: MBC) is 7.8 µg/mL (≈ 15.4 µM); in the series with Streptococcus mutans [5] (S. mutans, read-out: MBC), 1.95 µg/mL (≈ 3.86 µM); with A. actinomycetemcomitans [6] (A. actinomycetemcomitans, read-out: MBC) it was 3.9 µg/mL (≈ 7.72 µM).
